Assay results from US9233954B2, “Organic amine salts of Azilsartan, preparation method and use thereof” (Jiangsu Hansoh Pharmaceutical Co., Ltd., priority 2011, dated 2016).
Like-named read-outs stand apart in the source and are kept apart here.

Tests used:
Hygroscopicity test = assay type: physicochemical; details: 25° C.±1° C., RH 80%±2%, 24 h
Protocol: 1. A dried glass weighing bottle (Outer diameter […]) with a plug was put into an artificial climate box under the temperature of 25° C.±1° C. and relative humidity (RH) of 80%±2% the day before and then weighed precisely (m1).
2. The testing sample was weighed precisely (m2) and lain into the weighing bottle. The thickness of the test sample was about 1 mm.
3. The uncovered weighing bottle and its plug were placed under the above constant temperature and humidity conditions for 24 h.
4. The weighing bottle was covered and weighed precisely (m3).
Calculation formula: Percent of weight increase=(m3−m2)/(m2−m1)*100%
5. Definition of the weight increase of the hygroscopicity
Deliquescence: absorbing enough water to form liquid.
High hygroscopicity: the weight increase of the hygroscopicity is no less than 15%
Having hygroscopicity: the weight increase of the hygroscopicity is between 15% and 2%
Slight hygroscopicity: the weight increase of the hygroscopicity is between 2% and 0.2%
No or almost no hygroscopicity: the weight increase of the hygroscopicity is less than 0.2%

[1] = system: blood pressure of SHR rats; experiment: Antihypertensive effect test for spontaneously hypertensive (SHR) rats; assay type: in vivo; details: 10 mg/kg
Protocol: Antihypertensive Effect Test For Spontaneously Hypertensive (SHR) Rats
38 of 25 week old SHR male rats were randomly divided into 4 groups according to the initial blood pressure, with 6 for the control group (solvent) and 8 for other groups. 10 mg/kg of example 2 compound (Choline Azilsartan), example 4 compound (Azilsartan ethanolamine salts) and control (Azilsartan medoxomil potassium salt) were continuously administered, respectively. The solvent control group was administered solvent. The administration volume was 5 ml/kg and the period was 2 weeks.

Beagle dog = assay type: in vivo; details: for Clinical observations: intragastric
Source text: Acute Toxicity Test Research for Beagle Dog
Object: Approximate lethal dose method was introduced in the test to observe the acute toxicity response of the animals by intragastric administration of example 2 or Azilsartan medoxomil potassium salt to Beagle dogs to study the toxicity situation of example 2 after administration and compare the toxicity of example 2 and Azilsartan medoxomil potassium salt, which can provide reference confirmation for the evaluation of toxicity of example 2.
Method (approximate lethal dose method): 6 Beagle dogs were used, 3 for each of example 2 group and Azilsartan medoxomil potassium salt group. The administration dosage was 0.09, 0.13, 0.19, 0.28, 0.42, 0.63, 0.95, 1.42, 2.13, 3.20 g·kg^−1 respectively, wherein 3.20 g·kg^−1 was the maximum administration dosage (corresponding to 1081 times the given dosage for the clinical patient). The blood was collected before administration and on days 2, 7, and 14 after administration to test the corresponding biochemical indicators. Electrocardiogram, body weight, and body temperature were determined before administration and on days 7 and 14 after administration.

[2] = Beagle dog, intragastric administration
[3] = all of the animals in the group, 1.42-3.20 g·kg^−1

**Q.** Which “Hygroscopicity (percent of weight increase)” value (Hygroscopicity test) does the source give for `CCOc1nc2cccc(C(=O)O)c2n1Cc1ccc(-c2ccccc2-c2noc(=O)[nH]2)cc1.CCOc1nc2cccc(C(=O)[O-])c2n1Cc1ccc(-c2ccccc2-c2noc(=O)[nH]2)cc1.C[N+](C)(C)CCO` [Example 2] here?
**A.** The value was 0.02%.

**Q.** What about the “Conclusion (hygroscopic or not)” value (Hygroscopicity test; listed as Example 2 Compound) of the same molecule?
**A.** The value was “No”.

**Q.** And the “Conclusion (hygroscopic or not)” value (Hygroscopicity test; listed as example 2 compound)?
**A.** The value was “not hygroscopic”.

**Q.** What about the “Antihypertensive effect compared with control (Azilsartan medoxomil potassium salt)” value ([1]; SHR rats, 2 weeks) of the same molecule?
**A.** Its value is “superior to the antihypertensive effect of control”.

**Q.** And the “Antihypertensive effect, ranking under the same dosage” value ([1]; SHR rats, 2 weeks)?
**A.** Its value is “optimal”.

**Q.** What about the “Effect on blood pressure of SHR rats compared with solvent control” value ([1]; continuously administered for one or two weeks, FIG. 4) of the same molecule?
**A.** Its value is “reduce the blood pressure of SHR rats significantly”.

**Q.** And the Dissection findings (Beagle dog; 1.42 g·kg^−1 dosage group)?
**A.** The Dissection findings was “the stomach was filled and contained amounts of particle food; the cardiac mucosa was red and showed sporadic red dot; other viscera did not show anomalies”.

**Q.** And the Clinical observations (Beagle dog; 1.42 g·kg^−1 dosage group, Beagle dog)?
**A.** Its Clinical observations is “liquid stools and less moving, moving reduction on day 2 after administration, the moving recovered to normal on day 3 and no abnormality was observed after day 3”.

**Q.** And the Clinical observations (Beagle dog; 2.13 g·kg^−1 dosage group, Beagle dog)?
**A.** Its Clinical observations is “on the day of administration no abnormality was observed and the animals showed vomit, moving reduction on day 2 after administration, loose stools and moving recovered on day 3, and the excreta recovered to normal on day 4 and no abnormality observed after day 4”.

**Q.** And the Dissection findings (Beagle dog; 2.13 g·kg^−1 dosage group, day 15)?
**A.** Its Dissection findings is “the stomach was filled and contained amounts of particle food; the cardiac mucosa was red and showed sporadic red dot; other viscera did not show anomalies”.

**Q.** What about the Blood biochemical indicators (Beagle dog; 3.20 g·kg^−1 dosage) of the same molecule?
**A.** Its Blood biochemical indicators is “ALT of dogs with 3.20 g·kg^−1 dosage was increased on day 2 and recovered to normal on day 7”.

**Q.** What about the Fib (Beagle dog; 3.20 g·kg^−1 dosage) of the same molecule?
**A.** Its Fib is “increased significantly on day 2 after administration”.

**Q.** What about the “Histopathology (HE, light microscope)” value (Beagle dog; 3.20 g·kg^−1 dosage group) of the same molecule?
**A.** The value was “did not show obvious anomalies”.

**Q.** What about the Clinical observations (Beagle dog; 3.20 g·kg^−1 dosage group, Beagle dog) of the same molecule?
**A.** The Clinical observations was “loose stools, liquid stools, vomit until the end of the observation and showed liquid stools, moving reduction on day 2 after administration, showed loose stools on day 3 and the moving recovered, the excreta recovered to normal on day 4 and no abnormality observed after that”.

**Q.** And the “Systolic blood pressure and diastolic blood pressure” value (Beagle dog; 5 animals of the two groups together)?
**A.** Its value is “reduced more or less on day 2 after administration”.

**Q.** And the “Acute toxicity, comparison” value (Beagle dog; [2])?
**A.** The value was “lower than that of Azilsartan medoxomil potassium salt”.

**Q.** What about the Approximate lethal dose (Beagle dog; [2]) of the same molecule?
**A.** The Approximate lethal dose was “more than 3.20 g·kg^−1”.

**Q.** And the Body temperature (Beagle dog; [3])?
**A.** Its Body temperature is “no abnormality on day 7 after administration”.

**Q.** What about the Body weight (Beagle dog; [3]) of the same molecule?
**A.** The Body weight was “decreased on day 7 after administration compared with pre-administration”.

**Q.** What about the “Electrocardiogram and haematological indicators” value (Beagle dog; [3]) of the same molecule?
**A.** Its value is “not abnormal on day 7 after administration”.

**Q.** And the PT values (Beagle dog; all the animals of the group, after vs. pre-administration)?
**A.** Its PT values is “reduced significantly after administration compared to pre-administration”.

**Q.** And the Blood biochemical indicators (Beagle dog; all the dogs of the group (1.42, 2.13, 3.20 g·kg^−1))?
**A.** The Blood biochemical indicators was “CRE, UREA and UA of all the dogs administered Example 2 compound were increased significantly on day 2 after administration, the CRE and UA increased significantly on day 7 after administration, and they recovered to normal on day 14”.
